Source: PMC5424180, “The molecular mechanism of the type IVa pilus motors” (Nature Communications, 2017)
One block for each compound: values may come before it.

Assays:
PilB (PilBGm) [1] = biological target: T1, PilB (PilBGm) (Geobacter metallireducens, UniProt Q39VU7); experiment: X-ray crystallography, […] Å; conditions: Mg2+; pH 7.0; 20 °C; non-saturating AMP-PNP; ATP binding sites (closed full occupancy, open ~70%)
T1 construct: hexamer; residues 181-568 (N2D + CTD) built; primer-encoded start MQASRL, end TVADD

[2] = biological target: PilB from Geobacter metallireducens (Geobacter metallireducens); experiment: crystal structure; PilB:ADP; no exogenous nucleotide added; 13% PEG3350, 0.1 M magnesium formate, 0.1 M Tris pH 7.6, vapour diffusion at 20 °C; three chains in the asymmetric unit, hexamer from crystal packing
[3] = biological target: PilB from Geobacter metallireducens (Geobacter metallireducens); experiment: crystal structure; PilB:AMP-PNP; non-saturating AMP-PNP (50 μM final to 120 μM PilB); 11% PEG3350, 0.1 M magnesium formate, 0.1 M Tris pH 7.0, vapour diffusion at 20 °C; six chains in the asymmetric unit
PilB (PilBGm) [4] = biological target: T1, PilB (PilBGm); experiment: X-ray crystallography, […] Å (anisotropic); conditions: Mg2+; pH 7.6; 20 °C; no exogenous nucleotide, ADP co-purified from E. coli; four closed ATP binding sites

T1 sequence (Q39VU7 entry or part of it): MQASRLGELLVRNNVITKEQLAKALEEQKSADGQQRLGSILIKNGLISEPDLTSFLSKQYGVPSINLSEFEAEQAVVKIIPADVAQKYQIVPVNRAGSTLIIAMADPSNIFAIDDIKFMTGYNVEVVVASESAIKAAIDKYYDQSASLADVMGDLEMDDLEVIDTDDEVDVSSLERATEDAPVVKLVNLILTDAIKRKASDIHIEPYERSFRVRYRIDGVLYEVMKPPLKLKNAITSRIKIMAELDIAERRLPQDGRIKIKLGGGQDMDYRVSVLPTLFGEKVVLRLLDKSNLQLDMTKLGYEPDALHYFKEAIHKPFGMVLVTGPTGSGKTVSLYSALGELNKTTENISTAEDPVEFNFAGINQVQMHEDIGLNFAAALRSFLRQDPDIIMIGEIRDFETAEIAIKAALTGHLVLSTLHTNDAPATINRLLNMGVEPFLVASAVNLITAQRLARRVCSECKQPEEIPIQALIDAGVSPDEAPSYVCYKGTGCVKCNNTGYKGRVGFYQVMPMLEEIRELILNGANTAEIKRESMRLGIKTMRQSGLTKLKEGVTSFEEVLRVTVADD

Compound: Nc1ncnc2c1ncn2[C@@H]1O[C@H](COP(=O)(O)OP(=O)(O)NP(=O)(O)O)[C@@H](O)[C@H]1O [AMP-PNP]
X-ray crystallography, 2.3 Å (PilB (PilBGm) [1]): Between two packing units, AMP-PNP, magnesium, and several highly ordered waters best fit

stoichiometry N [2]: 6
stoichiometry N [3]: 6
Compound: PilB from Geobacter metallireducens (enzyme)

Compound: Nc1ncnc2c1ncn2[C@@H]1O[C@H](COP(=O)(O)OP(=O)(O)O)[C@@H](O)[C@H]1O [ADP]
X-ray crystallography, 3.4 Å (anisotropic) (PilB (PilBGm) [4]): In four sites, ADP and magnesium best fit the electron density
